Measured values reported in BindingDB's records for doi:10.1021/bi9016186 (Weill Cornell Medical College, 2010).

Target: T1, Dihydrolipoyl dehydrogenase (Mycobacterium tuberculosis (strain CDC 1551 / Oshkosh), UniProt P9WHH8)
T1 sequence (P9WHH8 whole entry): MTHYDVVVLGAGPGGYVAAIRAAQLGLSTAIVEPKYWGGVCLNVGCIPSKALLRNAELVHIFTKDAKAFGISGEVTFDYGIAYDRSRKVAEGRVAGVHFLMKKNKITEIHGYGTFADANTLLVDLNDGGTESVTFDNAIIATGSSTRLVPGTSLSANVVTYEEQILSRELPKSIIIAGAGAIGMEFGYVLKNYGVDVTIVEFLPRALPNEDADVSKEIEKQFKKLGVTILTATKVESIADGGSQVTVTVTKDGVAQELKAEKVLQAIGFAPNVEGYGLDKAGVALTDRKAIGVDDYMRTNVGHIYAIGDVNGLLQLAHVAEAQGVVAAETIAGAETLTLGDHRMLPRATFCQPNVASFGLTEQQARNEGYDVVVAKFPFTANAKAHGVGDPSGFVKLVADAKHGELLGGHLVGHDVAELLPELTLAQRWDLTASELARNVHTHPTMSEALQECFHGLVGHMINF
Experiment: Enzymatic Assay

SMILES | IC50 [µM]
COc1ccc(C(=O)N2CCC3(CC2)C(=O)N(CC(=O)NCCc2ccc(C(F)(F)F)cc2)CN3c2ccccc2)c(OC)c1 [Triazaspirobenzyl, 4] | 2
COc1cccc(C(=O)N2CCC3(CC2)C(=O)N(CC(=O)NCCc2ccc(C(F)(F)F)cc2)CN3c2ccccc2)c1 [Triazaspirobenzyl, 8] | > 100
